Assay results published in patent US20230085307A1, “PYRIDAZINONE COMPOUND AND HERBICIDE” (NISSAN CHEMICAL CORPORATION, priority 2019, published 2023).

Assays:
[1] = tested on: barnyard grass; experiment: Test Example 3: herbicidal effect by foliage application, Wagner pot (Table 18, symbol H); format: in vivo, barnyard grass (Echinochloa crus-galli); details: amount of applied herbicide 320 g/ha
Procedure, shortened: (§1)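 Plants were sown in alluvial soil held under 0.1–0.5 cm standing water and grown 14 days in a greenhouse at 25–30 °C. An emulsifiable formulation, water-diluted to the set dose, was then sprayed onto the foliage, and effects were scored three weeks later using previously defined criteria.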

[2] = tested on: Chinese sprangletop; experiment: Test Example 3: herbicidal effect by foliage application, Wagner pot (Table 18, symbol D); format: in vivo, chinese sprangletop (Leptochloa chinensis); details: amount of applied herbicide 320 g/ha
Procedure, shortened: as §1

[3] = tested on: rice flat sedge; experiment: Test Example 3: herbicidal effect by foliage application, Wagner pot (Table 18, symbol E); format: in vivo, rice flat sedge (Cyperus iria); details: amount of applied herbicide 320 g/ha
Procedure, shortened: as §1

[4] = tested on: southern crabgrass; experiment: Test Example 4: herbicidal effect by soil treatment (Table 19, symbol F); format: in vivo, southern crabgrass (Digitaria ciliaris); details: amount of applied herbicide 320 g/ha
Procedure, shortened: (§2)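 Step 1: sow seeds in sterilized diluvial soil, cover ~1.5 cm. Step 2: spray diluted emulsion onto soil surface at predetermined rate. Step 3: greenhouse, 25–30° C, three weeks. Step 4: grade effect on each plant by earlier criteria.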

[5] = tested on: green foxtail; experiment: Test Example 4: herbicidal effect by soil treatment (Table 19, symbol G); format: in vivo, green foxtail (Setaria viridis); details: amount of applied herbicide 320 g/ha
Procedure, shortened: as §2

[6] = tested on: barnyard grass; experiment: Test Example 4: herbicidal effect by soil treatment (Table 19, symbol H); format: in vivo, barnyard grass (Echinochloa crus-galli); details: amount of applied herbicide 320 g/ha
Procedure, shortened: as §2

[7] = tested on: wild oat; experiment: Test Example 4: herbicidal effect by soil treatment (Table 19, symbol I); format: in vivo, wild oat (Avena fatua); details: amount of applied herbicide 320 g/ha
Text: (§3) [Test Example 4] Herbicidal Effect Test by Soil Treatment
(§4) Sterilized diluvial soil was placed in a plastic box having a length of 21 cm, a width of 13 cm, and a depth of 7 cm. The seeds of each of southern crabgrass, green foxtail, barnyard grass, wild oat, blackgrass, Italian ryegrass, windgrass, velvetleaf, redroot pigweed, lambsquarters, chickweed, false cleavers, persian speedwell, corn, soybean, rice, wheat, beet, and rapeseed were sowed in a spot-like manner and covered with the soil having a thickness of about 1.5 cm. Subsequently, the emulsion agent of the compound of the present invention prepared according to Formulation Example 2 was diluted with water so as to achieve a predetermined herbicide amount, and the diluted emulsion agent was uniformly applied to the surface of the soil with a small-sized spray. The plastic box was placed in a greenhouse at 25° C. to 30° C. for growth of the plants. Three weeks after the herbicide application, the effect of the herbicide on each plant was evaluated according to the criteria of Test Example 1.

[8] = tested on: blackgrass; experiment: Test Example 4: herbicidal effect by soil treatment (Table 19, symbol J); format: in vivo, blackgrass (Alopecurus myosuroides); details: amount of applied herbicide 320 g/ha
Text: as §3, §4

[9] = tested on: Italian ryegrass; experiment: Test Example 4: herbicidal effect by soil treatment (Table 19, symbol K); format: in vivo, Italian ryegrass (Lolium multiflorum); details: amount of applied herbicide 320 g/ha
Text: as §3, §4

[10] = tested on: windgrass; experiment: Test Example 4: herbicidal effect by soil treatment (Table 19, symbol L); format: in vivo, windgrass (Apera spica-venti); details: amount of applied herbicide 320 g/ha
Text: as §3, §4

[11] = tested on: velvetleaf; experiment: Test Example 4: herbicidal effect by soil treatment (Table 19, symbol M); format: in vivo, velvetleaf (Abutilon theophrasti); details: amount of applied herbicide 320 g/ha
Procedure, shortened: as §2

[12] = tested on: redroot pigweed; experiment: Test Example 4: herbicidal effect by soil treatment (Table 19, symbol N); format: in vivo, redroot pigweed (Amaranthus retroflexus); details: amount of applied herbicide 320 g/ha
Procedure, shortened: as §2

[13] = tested on: lambsquarters; experiment: Test Example 4: herbicidal effect by soil treatment (Table 19, symbol O); format: in vivo, lambsquarters (Chenopodium album); details: amount of applied herbicide 320 g/ha
Procedure, shortened: as §2

[14] = tested on: chickweed; experiment: Test Example 4: herbicidal effect by soil treatment (Table 19, symbol P); format: in vivo, common chickweed (Stellaria media); details: amount of applied herbicide 320 g/ha
Text: as §3, §4

[15] = tested on: southern crabgrass; experiment: Test Example 5: herbicidal effect by foliage application, plastic box (Table 20, symbol F); format: in vivo, southern crabgrass (Digitaria ciliaris); details: foliage application, evaluated three weeks after application
Procedure, shortened: (§5)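 Foliar spray test: emulsion formulation diluted in water to a set application rate, sprayed onto 14-day-old plants raised in diluvial soil at 25° C to 30° C under glass. Both herbicidal effect and crop effect rated visually three weeks later.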

[16] = tested on: green foxtail; experiment: Test Example 5: herbicidal effect by foliage application, plastic box (Table 20, symbol G); format: in vivo, green foxtail (Setaria viridis); details: foliage application, evaluated three weeks after application
Procedure, shortened: as §5

[17] = tested on: barnyard grass; experiment: Test Example 5: herbicidal effect by foliage application, plastic box (Table 20, symbol H); format: in vivo, barnyard grass (Echinochloa crus-galli); details: foliage application, evaluated three weeks after application
Procedure, shortened: as §5

[18] = tested on: wild oat; experiment: Test Example 5: herbicidal effect by foliage application, plastic box (Table 20, symbol I); format: in vivo, wild oat (Avena fatua); details: foliage application, evaluated three weeks after application
Procedure, shortened: as §5

[19] = tested on: blackgrass; experiment: Test Example 5: herbicidal effect by foliage application, plastic box (Table 20, symbol J); format: in vivo, blackgrass (Alopecurus myosuroides); details: foliage application, 320 g/ha, evaluated three weeks after application
Procedure, shortened: as §5

[20] = tested on: Italian ryegrass; experiment: Test Example 5: herbicidal effect by foliage application, plastic box (Table 20, symbol K); format: in vivo, Italian ryegrass (Lolium multiflorum); details: foliage application, evaluated three weeks after application
Procedure, shortened: as §5

[21] = tested on: windgrass; experiment: Test Example 5: herbicidal effect by foliage application, plastic box (Table 20, symbol L); format: in vivo, windgrass (Apera spica-venti); details: foliage application, evaluated three weeks after application
Procedure, shortened: as §5

[22] = tested on: velvetleaf; experiment: Test Example 5: herbicidal effect by foliage application, plastic box (Table 20, symbol M); format: in vivo, velvetleaf (Abutilon theophrasti); details: foliage application, evaluated three weeks after application
Procedure, shortened: as §5

[23] = tested on: redroot pigweed; experiment: Test Example 5: herbicidal effect by foliage application, plastic box (Table 20, symbol N); format: in vivo, redroot pigweed (Amaranthus retroflexus); details: foliage application, evaluated three weeks after application
Procedure, shortened: as §5

[24] = tested on: lambsquarters; experiment: Test Example 5: herbicidal effect by foliage application, plastic box (Table 20, symbol O); format: in vivo, lambsquarters (Chenopodium album); details: foliage application, evaluated three weeks after application
Procedure, shortened: as §5

[25] = tested on: chickweed; experiment: Test Example 5: herbicidal effect by foliage application, plastic box (Table 20, symbol P); format: in vivo, common chickweed (Stellaria media); details: foliage application, evaluated three weeks after application
Procedure, shortened: as §5

[26] = tested on: persian speedwell; experiment: Test Example 5: herbicidal effect by foliage application, plastic box (Table 20, symbol R); format: in vivo, Persian speedwell (Veronica persica); details: foliage application, evaluated three weeks after application
Procedure, shortened: as §5

COc1ccc(-c2sc3ccc(Cl)cc3c2-c2c(O)c(C)nn(C)c2=O)cc1C [2-119]
herbicidal effect on H: barnyard grass [1]: 3 (Herbicidal rate of 40% or more and less than 70%) | herbicidal effect on D: Chinese sprangletop [2]: 2 (Herbicidal rate of 20% or more and less than 40%) | herbicidal effect on E: rice flat sedge [3]: 3 (Herbicidal rate of 40% or more and less than 70%) | F: southern crabgrass, herbicidal effect rating [4]: 0 (Herbicidal rate of 5% or less (almost no effect)) | G: green foxtail, herbicidal effect rating [5]: 0 (Herbicidal rate of 5% or less (almost no effect)) | H: barnyard grass, herbicidal effect rating [6]: 0 (Herbicidal rate of 5% or less (almost no effect)) | I: wild oat, herbicidal effect rating [7]: 0 (Herbicidal rate of 5% or less (almost no effect)) | J: blackgrass, herbicidal effect rating [8]: 0 (Herbicidal rate of 5% or less (almost no effect)) | K: Italian ryegrass, herbicidal effect rating [9]: 0 (Herbicidal rate of 5% or less (almost no effect)) | L: windgrass, herbicidal effect rating [10]: 0 (Herbicidal rate of 5% or less (almost no effect)) | M: velvetleaf, herbicidal effect rating [11]: 0 (Herbicidal rate of 5% or less (almost no effect)) | N: redroot pigweed, herbicidal effect rating [12]: 0 (Herbicidal rate of 5% or less (almost no effect)) | O: lambsquarters, herbicidal effect rating [13]: 2 (Herbicidal rate of 20% or more and less than 40%) | P: chickweed, herbicidal effect rating [14]: 0 (Herbicidal rate of 5% or less (almost no effect)) | herbicidal effect on F: southern crabgrass ([15]; 320 g/ha): 0 (Herbicidal rate of 5% or less (almost no effect)) | herbicidal effect on G: green foxtail ([16]; 320 g/ha): 0 (Herbicidal rate of 5% or less (almost no effect)) | herbicidal effect on H: barnyard grass ([17]; 320 g/ha): 1 (Herbicidal rate of 5% or more and less than 20%) | herbicidal effect on I: wild oat ([18]; 320 g/ha): 0 (Herbicidal rate of 5% or less (almost no effect)) | herbicidal effect on J: blackgrass [19]: 3 (Herbicidal rate of 40% or more and less than 70%) | herbicidal effect on K: Italian ryegrass ([20]; 320 g/ha): 0 (Herbicidal rate of 5% or less (almost no effect)) | herbicidal effect on L: windgrass ([21]; 320 g/ha): 0 (Herbicidal rate of 5% or less (almost no effect)) | herbicidal effect on M: velvetleaf ([22]; 320 g/ha): 3 (Herbicidal rate of 40% or more and less than 70%) | herbicidal effect on N: redroot pigweed ([23]; 320 g/ha): 0 (Herbicidal rate of 5% or less (almost no effect)) | herbicidal effect on O: lambsquarters ([24]; 320 g/ha): 3 (Herbicidal rate of 40% or more and less than 70%) | herbicidal effect on P: chickweed ([25]; 320 g/ha): 1 (Herbicidal rate of 5% or more and less than 20%) | herbicidal effect on R: persian speedwell ([26]; 320 g/ha): 3 (Herbicidal rate of 40% or more and less than 70%)

CCCC(=O)Oc1c(C)nn(C)c(=O)c1-c1c(-c2cccc(OCc3ccccc3)c2)sc2ccc(F)cc12 [2-268]
herbicidal effect on H: barnyard grass [1]: 4 (Herbicidal rate of 70% or more and less than 90%) | herbicidal effect on D: Chinese sprangletop [2]: 3 (Herbicidal rate of 40% or more and less than 70%) | herbicidal effect on E: rice flat sedge [3]: 3 (Herbicidal rate of 40% or more and less than 70%) | herbicidal effect on F: southern crabgrass [4]: 0 (Herbicidal rate of 5% or less (almost no effect)) | herbicidal effect on G: green foxtail [5]: 0 (Herbicidal rate of 5% or less (almost no effect)) | herbicidal effect on H: barnyard grass [6]: 0 (Herbicidal rate of 5% or less (almost no effect)) | herbicidal effect on I: wild oat [7]: 0 (Herbicidal rate of 5% or less (almost no effect)) | herbicidal effect on J: blackgrass [8]: 0 (Herbicidal rate of 5% or less (almost no effect)) | herbicidal effect on K: Italian ryegrass [9]: 3 (Herbicidal rate of 40% or more and less than 70%) | herbicidal effect on L: windgrass [10]: 0 (Herbicidal rate of 5% or less (almost no effect)) | herbicidal effect on M: velvetleaf [11]: 0 (Herbicidal rate of 5% or less (almost no effect)) | herbicidal effect on N: redroot pigweed [12]: 0 (Herbicidal rate of 5% or less (almost no effect)) | herbicidal effect on O: lambsquarters [13]: 0 (Herbicidal rate of 5% or less (almost no effect)) | herbicidal effect on P: chickweed [14]: 0 (Herbicidal rate of 5% or less (almost no effect)) | F: southern crabgrass, herbicidal effect (criteria 0-5) ([15]; AAH 320 g/ha): 1 (Herbicidal rate of 5% or more and less than 20%) | G: green foxtail, herbicidal effect (criteria 0-5) ([16]; AAH 320 g/ha): 4 (Herbicidal rate of 70% or more and less than 90%) | H: barnyard grass, herbicidal effect (criteria 0-5) ([17]; AAH 320 g/ha): 4 (Herbicidal rate of 70% or more and less than 90%) | I: wild oat, herbicidal effect (criteria 0-5) ([18]; AAH 320 g/ha): 0 (Herbicidal rate of 5% or less (almost no effect)) | K: Italian ryegrass, herbicidal effect (criteria 0-5) ([20]; AAH 320 g/ha): 2 (Herbicidal rate of 20% or more and less than 40%) | L: windgrass, herbicidal effect (criteria 0-5) ([21]; AAH 320 g/ha): 1 (Herbicidal rate of 5% or more and less than 20%) | M: velvetleaf, herbicidal effect (criteria 0-5) ([22]; AAH 320 g/ha): 1 (Herbicidal rate of 5% or more and less than 20%) | N: redroot pigweed, herbicidal effect (criteria 0-5) ([23]; AAH 320 g/ha): 3 (Herbicidal rate of 40% or more and less than 70%) | O: lambsquarters, herbicidal effect (criteria 0-5) ([24]; AAH 320 g/ha): 3 (Herbicidal rate of 40% or more and less than 70%) | P: chickweed, herbicidal effect (criteria 0-5) ([25]; AAH 320 g/ha): 5 (Herbicidal rate of 90% or more (almost completely withered)) | R: persian speedwell, herbicidal effect (criteria 0-5) ([26]; AAH 320 g/ha): 4 (Herbicidal rate of 70% or more and less than 90%)
